Measurements: patent US11358933B2, “Compounds and methods for inhibiting CYP26 enzymes” (Queen's University at Kingston, priority 2017, dated 2022)

What was measured:
human AML THP-1 cells = assay: Leukemia cell differentiation by FACS (PE-CD11b), THP-1 cells with or without OP9 stroma; assay type: cell-based; conditions: RA alone
Procedure: (§1) Many human non-APL AML cell lines are sensitive to RA-induced differentiation. However, co-culture of leukemic cells with bone marrow stromal cells can block this effect of RA. This assay tests the ability of CYP26 inhibitor compounds to overcome the protective effect that stromal cells have on leukemic cell differentiation. For these experiments, OP9 mouse bone marrow stromal cells are grown MEM-α containing 20% FBS, in 24 well plates until a cell monolayer is formed. OP9 cells are then irradiated (15Gy) using a GammaCell 20 cesium-137 source (located at Queen's University) in order to induce growth arrest. Leukemic cells are then added to the irradiated monolayers, or control wells without OP9 cells. AML cell lines (150,000 cells) are then plated onto OP9 monolayers in their appropriated growth medium; THP-1 RPMI-1640 medium containing 10% FBS; MDSL, RPMI-1640 medium containing 10% FBS and 10 ng/ml recombinant human IL-3; Kasumi-1, RPMI-1640 containing 20% FBS; MV4-11, IMDM containing 10% FBS. Cells are then treated for 72 hours with DMSO (vehicle control), RA (0.1 μM for THP-1 and MV4-11 cells, and 1 μM for Kasumi-1 cells), test CYP26 inhibitor compound, or the combination of RA and inhibitor compound. After the treatment period, leukemic cells are collected and stained with fluorophore labeled antibodies against cell surface antigens indicative of myeloid differentiation (PE-CD11b), or of stem cell populations (FITC-CD34, PE-CD38); all antibodies are available from BD Biosciences. Stained cells are then sorted by FACS in a BD FACS Aria 3 flow cytometer (Queen's University) using FACS Diva software, to assess percentage of cells that are CD11b^+, the relative expression levels of CD11b (by median fluorescence intensity—MFI), or percentage of CD34^+CD38^− leukemic stem cells (LSCs). Results are typically presented as the average of triplicates.

THP-1 cells = assay: Leukemia cell colony formation, THP-1 cells; assay type: cell-based, human; conditions: RA alone, without stroma
Procedure: This experiment is used to test the long-term proliferative ability of hematopoietic stem and progenitor cells as well as leukemic stem cells. Colony forming ability in long term cultures is indicative of stem/progenitor cell activity. […] For these experiments, bone marrow stromal and leukemic cell co-cultures are prepared as described above and treated with RA and/or CYP26 inhibitor compound for 72 hours. After the treatment period, leukemic cells are collected and re-plated in semi-solid methylcellulose medium to assess colony forming ability. 500 leukemic cells are plated per dish in 35 mm plates in 1.1 ml of MethoCult (available from STEMCELL Technologies, Vancouver, Canada). Triplicate plates are prepared per treatment, and cultures are grown for 14-16 days in a CO2 incubator. After the culture period colonies are counted under a dissecting microscope.

MV4-11 cells [1] = assay: Leukemia cell differentiation by FACS (CD11b+), MV4-11 cells with or without stroma; assay type: cell-based, human; conditions: RA alone, without stroma
Procedure: as §1, with “Cells are then treated for 72 hours with DMSO (vehicle control), RA (0.1 μM for THP-1 and MV4-11 cells, and 1 μM for Kasumi-1 cells), test CYP26 inhibitor compound, or the combination of RA and inhibitor compound. After the treatment period, leukemic cells are collected and stained with fluorophore labeled antibodies against cell surface antigens indicative of myeloid differentiation (PE-CD11b), or of stem cell populations (FITC-CD34, PE-CD38); all antibodies are available from BD Biosciences.” left out, “Results are typically presented as the average of triplicates.” left out

MV4-11 cells [2] = assay: Leukemia cell apoptosis (FITC-Annexin V), MV4-11 cells; assay type: cell-based, human; conditions: RA alone
Procedure: RA can also induce apoptosis is a variety of cell types, including AML cells. This experiment tests CYP26 inhibitor compounds for their ability to rescue RA-induced apoptosis in the presence of bone marrow stromal cells. For these experiments MV4-11 AML cells are plated as above, in the presence and absence of stromal monolayers. Cells are then treated for 48 hours with RA (0.1 μM). After the treatment period, cells are stained with a FITC-labeled annexin V antibody (available from Thermofisher Scientific), which binds to the surface of apoptotic cells. Cells are then sorted by FACS in a as above and data are expressed as percentage of annexin V^+ (apoptotic) cells.

kasumi-1 human AML cells = assay: CD34+CD38- LSC analysis by FACS, Kasumi-1 cells with or without OP9 stroma; assay type: cell-based; conditions: 1 μM RA alone, without stroma
Procedure: as §1, with “Cells are then treated for 72 hours with DMSO (vehicle control), RA (0.1 μM for THP-1 and MV4-11 cells, and 1 μM for Kasumi-1 cells), test CYP26 inhibitor compound, or the combination of RA and inhibitor compound. After the treatment period, leukemic cells are collected and stained with fluorophore labeled antibodies against cell surface antigens indicative of myeloid differentiation (PE-CD11b), or of stem cell populations (FITC-CD34, PE-CD38); all antibodies are available from BD Biosciences.” left out, “Results are typically presented as the average of triplicates.” left out

rhino mice = assay: Rhino mouse model of acne; assay type: in vivo; conditions: topical 10 nmol RA, 5 times per week, two weeks
Procedure: These experiments test the ability of CYP26 inhibitor compounds and other retinoids for potential anti-acne efficacy in a mouse model of acne. The rhino mouse model is a hairless mutant that develops skin lesions similar to acne, and has been used extensively as a model to assess new acne treatments, as well as in vivo activity of retinoids. Test compounds or RA were dissolved in acetone/10% DMSO, and 0.4 ml was applied topically to the dorsal skin of animals (2 male+2 female) once a day for five days per week, for two consecutive weeks. On the day after the last treatment, animals were sacrificed and skin was collected from the treated are and processed for histology, and epidermal sheets prepared for visualization of utriculi. Histological sections were prepared by paraffin embedding of formalin fixed samples, and stained with hematoxylin and eosin. Photographs were taken under a Nikon Eclipse E600 microscope using Q Imaging software at 20× magnification. Epidermal sheets were prepared by treating skin samples for 5 days in 0.5% acetic acid at 4° C. for 5 days, after which the dermal and epidermal layers were carefully separated, and the epidermis was then dehydrated with a series of ethanol treatments (70%, 80%, 90% and 100%). […]

CYP26A1 = CYP26A1 (Homo sapiens (Human), UniProt O43174); assay: Cell-based inhibitor assay ([3H]-RA metabolism), CYP26A1 stably transfected HeLa cells; conditions: for IC50: HeLa cell-based assay, 3 hours; for CYP26A1 Rel. to keto: IC50 relative to ketoconazole
Procedure: (§2) CYP26A1 or CYP26B1 stably transfected HeLa cells were maintained in Minimum Essential Medium (MEM) containing 10% fetal bovine serum (FBS) and 100 μg/mL hygromycin. Exponentially growing cells were harvested by incubation in trypsin. Cells were then collected and re-plated in 48-well culture plates at 5×10^5 cells in 0.2 mL of culture medium containing 0.05 μCi [^3H]-RA in the presence or absence of increasing concentrations of a test compound. The test compounds were diluted in dimethyl sulfoxide (DMSO) and then added in duplicate to wells at 0.01, 0.1, 1, 10 and 100 μM final concentration. As a positive control for inhibition of RA metabolism, cells were also incubated with ketoconazole at the same concentrations as above. Cells were incubated for 3 hours at 37° C. Retinoids were then extracted using the procedure of Bligh, et al., (1959), Canadian Journal of Biochemistry 37, 911-917, which was modified by using dichloromethane instead of chloroform. Each sample's water soluble radioactivity level was quantified using a β-scintillation counter (using Ecolume scintillation fluid, available from MP Biomedicals of Solon, Ohio, USA). IC50 values represented the concentration of inhibitor required to inhibit all trans-RA metabolism by 50%, and were derived from log transformed data.

CYP26B1 = CYP26B1 (Homo sapiens (Human), UniProt Q9NR63); assay: Cell-based inhibitor assay ([3H]-RA metabolism), CYP26B1 stably transfected HeLa cells; conditions: for IC50: HeLa cell-based assay, 3 hours; for CYP26B1 Rel. to keto: IC50 relative to ketoconazole
Procedure: as §2

[3] = system: Cyp26a1-luc construct in MCF-7 cells; assay: Retinoid activity assay, Cyp26a1-luc reporter in MCF-7 cells; assay type: cell-based; conditions: 24 hours, firefly relative to Renilla luciferase
Source text: This retinoid activity assay measures the ability of test compounds to induce expression of a transiently transfected RA sensitive reporter construct. In this assay, MCF-7 cells are transfected with a construct comprising an upstream promoter of the CYP26A1 gene containing 2 RA response elements driving expression of firefly luciferase (pCYP26A1-luc). Since CYP26A1 is highly inducible by RA in these cells, this construct serves as a sensitive reporter of retinod-like transcriptional activity.
MCF-7 cells were maintained in a RPMI-1640 medium containing 10% FBS. Exponentially growing cells were harvested by incubation in trypsin. Cells were then collected and plated in 24-well plates at 50,000 cells/well. Once cells reached 80-90% confluence (e.g., the next day), cells were transfected with two plasmids. The first plasmid was CYP26A1-luc construct (375 ng). The second plasmid was a control plasmid comprising the Renilla luciferase gene driven by constitutive thymidine kinase promoter (pRL-tk) (25 ng). Transfection was performed using FuGene 6 transfection reagent (Promega) with a 1:3 ratio of DNA:FuGene. 24 hours after transfection, cells were treated with test compounds diluted in DMSO in triplicate at 0.1, 1 and 10 μM final concentrations. As a positive control for reporter activation, cells were also treated with RA diluted in DMSO at the same concentrations listed above. DMSO treatment alone served as a negative control. After 24 hours of treatment, cells were harvested in passive lysis buffer (Promega) and luciferase activity in cell lysates were read using a luminometer. Data are expressed as the activity of firefly luciferase relative to Renilla luciferase (see Tables 3-5). For CYP26A1 inhibitor compounds, no activation of the reporter was detected, while the related retinoid-like compound induces luciferase expression.

CYP26B1, sequence (Q9NR63 whole entry): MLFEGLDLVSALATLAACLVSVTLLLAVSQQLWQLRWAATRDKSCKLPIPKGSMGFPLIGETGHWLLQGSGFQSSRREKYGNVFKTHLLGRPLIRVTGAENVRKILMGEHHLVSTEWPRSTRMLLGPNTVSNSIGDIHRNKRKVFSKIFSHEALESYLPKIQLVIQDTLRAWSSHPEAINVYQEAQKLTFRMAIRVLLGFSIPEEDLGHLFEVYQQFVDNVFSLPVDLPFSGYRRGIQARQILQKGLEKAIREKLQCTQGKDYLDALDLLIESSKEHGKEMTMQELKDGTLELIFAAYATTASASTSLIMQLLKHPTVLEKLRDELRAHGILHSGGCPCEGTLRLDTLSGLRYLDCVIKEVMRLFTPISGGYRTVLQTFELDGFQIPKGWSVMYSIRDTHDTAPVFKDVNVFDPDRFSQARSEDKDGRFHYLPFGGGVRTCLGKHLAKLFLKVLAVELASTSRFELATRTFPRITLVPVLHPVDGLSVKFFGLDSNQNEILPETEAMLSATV
CYP26A1, sequence (O43174 whole entry): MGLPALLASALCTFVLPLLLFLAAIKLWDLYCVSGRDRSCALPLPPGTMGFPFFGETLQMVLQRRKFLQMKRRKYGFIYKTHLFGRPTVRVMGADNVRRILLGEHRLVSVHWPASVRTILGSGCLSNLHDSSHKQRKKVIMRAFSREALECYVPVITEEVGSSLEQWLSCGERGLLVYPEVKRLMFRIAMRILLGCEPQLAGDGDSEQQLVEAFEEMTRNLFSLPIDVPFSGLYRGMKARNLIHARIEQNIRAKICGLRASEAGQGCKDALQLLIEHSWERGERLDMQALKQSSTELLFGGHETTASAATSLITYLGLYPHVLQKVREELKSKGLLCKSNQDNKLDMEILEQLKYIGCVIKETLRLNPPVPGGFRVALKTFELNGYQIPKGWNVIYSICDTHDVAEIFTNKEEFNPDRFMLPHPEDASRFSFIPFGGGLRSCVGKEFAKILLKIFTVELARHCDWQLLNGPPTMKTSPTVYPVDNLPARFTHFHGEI

IC50 (CYP26A1) [µM] | IC50 (CYP26B1) [µM] | CYP26A1 Rel. to keto (CYP26A1) | CYP26B1 Rel. to keto (CYP26B1) | SMILES | CD11b marker expression (MFI) (human AML THP-1 cells) | Colony forming ability (THP-1 cells) | Percentage of CD11b+ cells (MV4-11 cells [1]) | Apoptosis (Annexin V positive cells) (MV4-11 cells [2]) | Number of CD34+CD38- cells (LSCs) (kasumi-1 human AML cells) | Utriculi size and epidermis thickness (rhino mice) | Rel. Luciferase Activity (mean) ([3]; 0.1 μM) | Rel. Luciferase Activity (mean) ([3]; 1 μM) | Rel. Luciferase Activity (mean) ([3]; 10 μM)
– | – | – | – | CC1=C(/C=C/C(C)=C/C=C/C(C)=C/C(=O)O)C(C)(C)CCC1 [RA, retinoic acid, reference compound] | significantly increases expression of the CD11b marker | reduced in THP-1 cells by exposure to RA | increased the percentage of | undergo apoptosis in response to RA | significantly reduced the number of these cells | reduction in the size of these utriculi, and a thickening of the epidermis | – | – | –
> 1000 | > 1000 | – | – | CC1(C)CC(C)(C)c2cc(C(=O)Cc3ccc(CC(=O)O)cc3)cc(C3CC3)c2O1 [Compound 028] | – | – | – | – | – | – | .0165 | .0094 | .0144
8.6 | 2.3 | 1.2 | 0.3 | CC(C)(C)c1cccc(-c2cc3cc(CC(=O)O)ccc3o2)c1 [Compound 032] | – | – | – | – | – | – | .0019 | .0015 | .0004
31.5 | 88.1 | 20 | 9.2 | CC1(C)CC(C)(C)c2cc(B3Oc4ccc(CC(=O)O)cc4O3)cc(C3CC3)c2O1 [Compound 030] | – | – | – | – | – | – | .0411 | .0343 | .0385
– | 54.9 | – | 5.7 | CC(C)(C)c1cccc(B(O)Oc2ccc(/C=C/C(=O)O)cc2)c1 [Compound 029] | – | – | – | – | – | – | .0386 | .0384 | .0333
8.6 | 8.8 | 1.2 | 0.9 | C=CCc1cc(C(=O)Cc2ccc(CC(=O)O)cc2)cc2c1OC(C)(C)CC2(C)C [Compound 027] | – | – | – | – | – | – | .0116 | .0099 | .0121
– | – | – | – | CC1(C)CC(C)(C)c2cc(-c3cc4cc(CC(=O)O)ccc4o3)cc(C3CC3)c2O1 [Compound 033] | – | – | – | – | – | – | .0024 | .0026 | .0027
– | 18.3 | – | 2 | CC(C)(C)c1cccc(-c2cc3cc(/C=C/C(=O)O)ccc3o2)c1 [Compound 031] | – | – | – | – | – | – | .0039 | .0047 | .0034
9.6 | 0.5 | 1.9 | 0.2 | Cc1ccc(C(C)(C)C)cc1-c1cc2cc(/C=C/C(=O)O)ccc2[nH]1 [Compound 034] | – | – | – | – | – | – | – | – | –
45.6 | 17.9 | 21.7 | 4.2 | CC(C)(C)c1cccc(C(=O)Cc2ccc(/C=C/C(=O)O)cc2)c1 [Compound 025] | – | – | – | – | – | – | .0144 | .01 | .0128
